Experimental data reported in patent US11286256B2, “Bicyclic inhibitors of histone deacetylase” (Alkermes, Inc., priority 2017, dated 2022).
One block for each compound: values may come before it.

Legend:
CYP3A4 = target: T1, CYP3A4 (Homo sapiens, UniProt P08684); assay: CYP inhibition assay in human liver microsomes (3A4, midazolam); type: in vitro ADME; settings: for inhibition at 5 min, 10 µM: probe midazolam, human liver microsomes, midazolam
T1 construct: Human liver microsomes were obtained from BD Gentest; tissue BD Gentest; host or cells: human liver microsomes
Procedure: (§1) Compounds were tested to evaluate their inhibitory potential on CYP2D6 and CYP3A4 (midazolam) using human liver microsomes. Human liver microsomes were obtained from BD Gentest, and each compound was run in duplicate.
(§2) The test compounds and reference inhibitors (quinidine for 2D6, ketoconazole for 3A4) were plated in a 96-well plate by transferring 8 μL of 10 mM stock solutions of compound in DMSO to 12 μL of acetonitrile. Individual inhibitor spiking solutions were prepared for CYP2D6 and CYP3A4 (8 μL of DMSO stock added to 12 μL of acetonitrile). Next added 400 μL of 0.2 mg/mL HLM to the assay wells and then added 2 μL of 400× test compound into the designated wells on ice. Next, added 200 μL of 0.2 mg/mL HLM to the assay wells and then added 1 μL of reference inhibitor solutions into the designated wells. The following solutions were added (in duplicate) to a 96-well assay plate on ice: The test compounds and reference inhibitors (quinidine for 2D6, ketoconazole for 3A4) were tested using the following experimental procedure:
(§3) 10. Incubate the assay plate at 37° C. 5 min for 3A4, 10 min for 2D6.
(§4) 11. Stop the reaction by adding 120 μL of ACN containing Internal Standard. For CYP3A4, the internal standard is 1′OH-midazolam-D4 (10 μM solution diluted to a final concentration of 0.1 μM by adding 100 μL internal standard stock to 10 mL ACN). For CYP2D6, the internal standard is 1-OH-Bufuralol-maleate-[D9] (49 μM solution diluted to a final concentration of 0.1 μM by adding 20 μL internal standard stock to 10 mL ACN).
(§5) The assessment on CYP isoform inhibition is as follows based on the assay results: if percentage of CYP inhibition is higher than 50%, indicates potent inhibition; if percentage of CYP inhibition is between 30-50%, indicates […]; if percentage of CYP inhibition is less than 30%, indicates slight or no inhibition. If the percentage of CYP inhibition is less than −30%, this indicates the compound may have some kind of activation of this isoform.

[1] = test system: human erythroid progenitors (CFU-E, BFU-E); assay: Erythroid CFU assay in human bone marrow cells; type: cell-based; settings: 10 μM, 14 days culture, human bone marrow cells
Procedure: (§6) Compounds were tested to evaluate the potential effects on human erythroid and myeloid progenitors using colony forming cell assays. Clonogenic progenitors of human erythroid (CFU-E, BFU-E), granulocyte-monocyte (CFU-GM) and multipotential (CFU-GEMM) lineages were assessed in a semi-solid methylcellulose-based media formulation containing rhlL-3 (10 ng/mL), rhGM-SCF (10 ng/mL), rhSCF (50 ng/mL) and Epo (3 U/mL).
(§7) Normal human bone marrow light density cells derived from normal bone marrow (NorCal Biologics, California) and qualified at ReachBio, were stored in the gaseous phase of liquid nitrogen (−152° C.) until required for the assay. On the day of the experiment, the cells were thawed rapidly, the contents of each vial was diluted in 10 mL of Iscove's modified Dulbecco's medium containing 10% fetal bovine serum (IMDM+10% FBS) and washed by centrifugation (approximately 1200 r.p.m. for 10 minutes, room temperature). The supernatant was discarded and the cell pellets resuspended in a known volume of IMDM+10% FBS. A cell count (3% glacial acetic acid) and viability assessment (trypan blue exclusion test) was performed for the bone marrow sample.
(§8) On the day of the experiment, the compounds were dissolved in DMSO to a stock concentration of 10 mM. Serial dilutions were prepared from the stock concentration to achieve concentrations of 2 and 0.4 mM. When added to the methylcellulose-based media at 1:1000 (v/v), the final test concentrations of 10, 2 and 0.4 μM were achieved. Additionally, 5-FU was evaluated at 1.0, 0.1 and 0.01 μg/mL.
(§9) Clonogenic progenitors of the human erythroid (CFU-E and BFU-E) and myeloid (CFU-GM) lineages were set up in the methylcellulose-based media formulations described above. All compounds were added to the medium to give the final desired concentrations (10, 2 and 0.4 μM). 5-Fluorouracil (Sigma Aldrich) was used as a positive control for progenitor proliferation (inhibition of colony growth) and was introduced to the human bone marrow cultures at 1.0, 0.1, and 0.01 μg/mL. Solvent control cultures (containing no compound but 0.1% DMSO) as well as standard controls (containing no compound and no DMSO) were also initiated.
(§10) Human myeloid and erythroid progenitor assays were initiated at 2.0×10^4 cells per culture. Following 14 days in culture, myeloid and erythroid colonies were assessed microscopically and scored by trained personnel. The colonies were divided into the following categories based on size and morphology: CFU-E, BFU-E, CFU-GM and CFU-GEMM.
(§11) The mean±one standard deviation of three replicate cultures was calculated for progenitors of each category (CFU-E, BFU-E, etc.). Two-tailed t-tests were performed to assess if there was a difference in the number of colonies generated between solvent control and treated cultures. Due to the potential subjectivity of colony enumeration, a p value of less than 0.01 is deemed significant. To calculate the concentration of 50% inhibition of colony growth (IC50) for each compound, a dose response curve was generated plotting the log of the compound concentration versus the percentage of control colony growth using XLfit software (IDBS). The concentration of 50% inhibition of colony growth (IC50) was calculated based on the sigmoid curve fit using Dose-Response, One-Site Model formula: y=A+[(B−A)/(1+((C/x)^D))], where A=the initial value (baseline response), B=maximum response, C=center (drug concentration that provokes a response halfway between A and B) and D=slope of the curve at midpoint. Further, plots and additional dose response curves were generated using GraphPad Prism 7.0.
(§12) Erythroid (CFU-E and BFU-E), myeloid (CFU-GM) and multi-potential (CFU-GEMM) colony enumeration was performed by trained personnel. The distribution of colony types as well as general colony and cellular morphology was analyzed. For statistical analysis colony numbers in compound treated cultures were compared to the solvent control cultures. […]

[2] = test system: human myeloid progenitors (CFU-GM); assay: Myeloid CFU assay in human bone marrow cells; type: cell-based; settings: 10 μM, 14 days culture, human bone marrow cells
Procedure: as §6, §7, §8, §9, §10, §11, §12

CYP2D6 = target: T2, CYP2D6 (Homo sapiens, UniProt P10635); assay: CYP inhibition assay in human liver microsomes (2D6); type: in vitro ADME; settings: for inhibition of CYP2D6 (in words): 10 μM; for inhibition at 10 min, 10 µM: human liver microsomes
T2 construct: Human liver microsomes were obtained from BD Gentest; tissue BD Gentest; host or cells: human liver microsomes
Procedure: as §1, §2, §3, §4, §5

T2 sequence (P10635 whole entry): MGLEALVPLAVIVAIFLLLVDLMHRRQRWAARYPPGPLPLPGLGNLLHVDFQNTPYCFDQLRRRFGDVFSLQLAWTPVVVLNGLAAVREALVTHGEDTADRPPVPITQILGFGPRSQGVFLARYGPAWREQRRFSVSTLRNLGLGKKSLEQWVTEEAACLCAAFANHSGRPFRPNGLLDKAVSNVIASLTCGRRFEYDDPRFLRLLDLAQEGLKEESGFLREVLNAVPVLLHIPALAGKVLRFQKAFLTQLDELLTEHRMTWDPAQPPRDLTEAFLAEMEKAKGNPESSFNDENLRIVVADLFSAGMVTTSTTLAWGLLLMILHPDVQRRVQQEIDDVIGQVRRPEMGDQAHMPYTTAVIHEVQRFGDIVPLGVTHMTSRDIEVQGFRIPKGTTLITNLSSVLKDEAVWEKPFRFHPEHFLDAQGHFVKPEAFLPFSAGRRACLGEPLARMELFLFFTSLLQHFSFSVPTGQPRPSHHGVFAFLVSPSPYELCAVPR
T1 sequence (P08684 whole entry): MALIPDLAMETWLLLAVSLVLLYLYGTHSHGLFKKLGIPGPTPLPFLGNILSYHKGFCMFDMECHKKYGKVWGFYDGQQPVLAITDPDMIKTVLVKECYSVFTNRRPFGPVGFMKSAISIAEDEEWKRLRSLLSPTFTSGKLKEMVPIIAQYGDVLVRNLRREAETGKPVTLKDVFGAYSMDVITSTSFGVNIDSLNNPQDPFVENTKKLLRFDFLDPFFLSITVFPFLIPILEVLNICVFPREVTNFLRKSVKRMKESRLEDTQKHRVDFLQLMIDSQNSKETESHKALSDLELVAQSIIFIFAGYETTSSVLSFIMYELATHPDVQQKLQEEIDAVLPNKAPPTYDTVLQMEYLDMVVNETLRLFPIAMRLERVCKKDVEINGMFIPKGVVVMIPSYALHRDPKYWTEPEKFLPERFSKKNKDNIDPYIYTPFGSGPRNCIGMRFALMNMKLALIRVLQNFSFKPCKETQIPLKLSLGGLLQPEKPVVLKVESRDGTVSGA

inhibition at 5 min, 10 µM (CYP3A4): 27% | CFU % Control remaining @ 10 μM Erythroid [1]: 57% | CFU % Control remaining @ 10 μM Myeloid [2]: 86% | inhibition at 10 min, 10 µM (CYP2D6): -1%
SMILES: COCc1cc2c(cn1)CN(C(=O)Nc1nc(-c3ccc(F)cc3F)ccc1N)C2 [Compound 1]

inhibition of CYP3A4 (in words) (CYP3A4; 10 μM): no significant inhibition | inhibition at 5 min, 10 µM (CYP3A4): 1% | CFU % Control remaining @ 10 μM Erythroid [1]: 27% | CFU % Control remaining @ 10 μM Myeloid [2]: 59% | inhibition of CYP2D6 (in words) (CYP2D6): no significant inhibition | inhibition at 10 min, 10 µM (CYP2D6): -5%
SMILES: Cc1ncc2c(n1)CN(C(=O)Nc1nc(-c3cccs3)ccc1N)C2 [Compound 2]

inhibition at 5 min, 10 µM (CYP3A4): -17% | CFU % Control remaining @ 10 μM Erythroid [1]: 54% | CFU % Control remaining @ 10 μM Myeloid [2]: 83% | inhibition of CYP2D6 (in words) (CYP2D6): significant inhibition | inhibition at 10 min, 10 µM (CYP2D6): 50%
SMILES: Nc1ccc(-c2cccs2)nc1NC(=O)N1Cc2cncnc2C1 [Comparator E]

More lines, now with the values behind:

SMILES: Nc1ccc(-c2ccc(F)cc2)nc1NC(=O)N1Cc2cncnc2C1 [Comparator D]
inhibition at 5 min, 10 µM (CYP3A4): 2% | CFU % Control remaining @ 10 μM Erythroid [1]: 47% | CFU % Control remaining @ 10 μM Myeloid [2]: 84% | inhibition of CYP2D6 (in words) (CYP2D6): significant inhibition | inhibition at 10 min, 10 µM (CYP2D6): 85%

SMILES: Nc1ccc(-c2ccc(F)cc2)cc1NC(=O)N1Cc2nccnc2C1 [Comparator A]
inhibition at 5 min, 10 µM (CYP3A4): -22% | CFU % Control remaining @ 10 μM Erythroid [1]: 0% | CFU % Control remaining @ 10 μM Myeloid [2]: 0% | inhibition at 10 min, 10 µM (CYP2D6): 34%

SMILES: Nc1ccc(-c2ccc(F)cc2)nc1NC(=O)N1Cc2nccnc2C1 [Comparator B]
inhibition at 5 min, 10 µM (CYP3A4): 1.5% | CFU % Control remaining @ 10 μM Erythroid [1]: 9% | CFU % Control remaining @ 10 μM Myeloid [2]: 25% | inhibition at 10 min, 10 µM (CYP2D6): 9%

SMILES: Nc1ccc(-c2cccs2)nc1NC(=O)N1Cc2nccnc2C1 [Comparator C]
inhibition at 5 min, 10 µM (CYP3A4): 1% | CFU % Control remaining @ 10 μM Erythroid [1]: 20% | CFU % Control remaining @ 10 μM Myeloid [2]: 20% | inhibition at 10 min, 10 µM (CYP2D6): 0.2%
